# Assay results: paper PMC10415494, “Ga(III) pyridinecarboxylate complexes: potential analogues of the second generation of therapeutic Ga(III) complexes?” (Journal of Biological Inorganic Chemistry, 2023)
# Where two headings read alike, the source gives them in different places.
# Columns and labels:
# [1] = test system: Microsporum gypseum (M. gypseum) CCM F-8342; experiment: Growth of filamentous fungi, macrodilution method on solidified PDA (colony diameter); assay type: cell-based; settings: Nannizzia gypsea, read-out: IC50 M. gypseum
# [2] = test system: Rhizopus oryzae (R. oryzae) CCM F-8284; experiment: as above; assay type: cell-based; settings: Rhizopus arrhizus, read-out: IC50 R. oryzae
# [3] = test system: Alternaria alternata (A. alternata) CCM F-128; experiment: as above; assay type: cell-based; settings: Alternaria alternata, read-out: IC50 A. alternata
# [4] = test system: Candida parapsilosis (C. parapsilosis) ATCC 22019; experiment: Antimicrobial activity, macrodilution method (yeast, growth by A590); assay type: cell-based; settings: Lodderomyces parapsilosis
# [5] = test system: Jurkat (human leukaemic T cell lymphoma); experiment: MTS antiproliferative assay; settings: Homo sapiens, Jurkat, 72 h, read-out: Cytotoxic activity IC50 Jurkat
# [6] = test system: HCT116 (human colorectal carcinoma); experiment: MTS antiproliferative assay; settings: Homo sapiens, HCT-116, 72 h, read-out: Cytotoxic activity IC50 HCT116
# [7] = test system: PaTu 8902 (human pancreatic adenocarcinoma); experiment: MTS antiproliferative assay; settings: Homo sapiens, PaTu 8902, 72 h, read-out: Cytotoxic activity IC50 PaTu 8902
# [8] = test system: MDA-MB-231 (human mammary gland adenocarcinoma); experiment: MTS antiproliferative assay; settings: Homo sapiens, MDA-MB-231, 72 h, read-out: Cytotoxic activity IC50 MDA-MB-231
# [9] = test system: A2058 (human metastatic melanoma); experiment: MTS antiproliferative assay; settings: Homo sapiens, A2058, 72 h, read-out: Cytotoxic activity IC50 A2058
# [10] = test system: HeLa (human cervical adenocarcinoma); experiment: MTS antiproliferative assay; settings: Homo sapiens, HeLa, 72 h, read-out: Cytotoxic activity IC50 HeLa
# [11] = MTS antiproliferative assay (non-cancer cells); settings: human
# [12] = test system: Escherichia coli (E. coli) CCM 3988; experiment: Antimicrobial activity, macrodilution method (growth by A590); assay type: cell-based; settings: Escherichia coli
# [13] = test system: Pseudomonas aeruginosa (P. aeruginosa) CCM 1959; experiment: as above; assay type: cell-based; settings: Pseudomonas aeruginosa
# [14] = test system: Staphylococcus aureus (S. aureus) CCM 3953; experiment: as above; assay type: cell-based; settings: Staphylococcus aureus
# [15] = Filamentous fungi, solidified potato-dextrose growth medium
smiles,measurement,setting,value
"O=C(O)c1cccc(C(=O)O)n1 [H2Dpic, dipicolinic acid]",IC50,[1],> 1000 µM
same,IC50,[2],500 µM
same,IC50,[3],> 1000 µM
same,IC50,"[4]; ATCC22019, read-out: IC50 C. parapsilosis",> 1000 µM
same,IC50,[5],> 200 µM
same,IC50,[6],> 200 µM
same,IC50,[7],> 200 µM
same,IC50,[8],> 200 µM
same,IC50,[9],> 200 µM
same,IC50,[10],> 200 µM
same,IC50 at 72 h,[11],> 200 µM
same,IC50,"[12]; CCM3988, read-out: IC50 E. coli",> 1000 µM
same,IC50,"[13]; CCM1959, read-out: IC50 P. aeruginosa",> 1000 µM
same,IC50,"[14]; CCM3953, read-out: IC50 S. aureus",> 1000 µM
"O=C(O)c1ccccn1 [HPic, picolinic acid]",IC50,[1]; [15],> 500 µM
same,IC50,[2]; solidified potato-dextrose growth medium,> 500 µM
same,IC50,[3]; [15],> 500 µM
same,IC50,"[4]; ATCC22019, Yeast, Sabouraud's growth medium, 37 °C, read-out: IC50 C. parapsilosis",> 500 µM
same,IC50,[5],> 200 µM
same,IC50,[6],> 200 µM
same,IC50,[7],> 200 µM
same,IC50,[8],> 200 µM
same,IC50,[9],> 200 µM
same,IC50,[10],> 200 µM
same,IC50 at 72 h,[11]; human dermal fibroblasts (HDF),> 200 µM
same,IC50,"[12]; CCM3988, Bacteria, MHB, 37 °C, DMSO max 1.0 vol. %, read-out: IC50 E. coli",> 500 µM
same,IC50,"[13]; CCM1959, Bacteria, MHB, 37 °C, DMSO max 1.0 vol. %, read-out: IC50 P. aeruginosa",> 500 µM
same,IC50,"[14]; CCM3953, Bacteria, MHB, 37 °C, DMSO max 1.0 vol. %, read-out: IC50 S. aureus",> 500 µM
